# Reference: patent US20100168054A1, “Functionalized Beta 1,6 Glucosamine Disaccharides and Process for Their Preparation” (OM PHARMA, priority 2006, published 2010)
# Experiments:
# [1] = tested on: THP1-Blue cells (express naturally both TLR2 and TLR4); test: THP1-Blue NF-κB/AP-1-inducible SEAP reporter; type: cell-based, human; details: for Optical density read at 625 nm, mean of duplicates: 48 h
# Procedure: A first series of experiment was performed on THP-1 cells, which express naturally both TLR2 and TLR4. THP-1 cells are human peripheral blood monocytic cells. Monocytes play a key role in innate immunity and express most TLRs at various levels. As for the primary cells, THP-1 cells activate NF-κB and other transcription factors in response to TLR ligands
# To facilitate analysis of TLR response in monocytes, InvivoGen (Toulouse, France) provides THP-1 clones stably transfected with an NF-κB-inducible reporter system, called THP1-Blue™. THP-1 Blue cells were stably transfected with a reporter plasmid expressing a secreted embryonic alkaline phosphatase (SEAP) gene under the control of a promoter inducible by several transcription factors such as NF-κB and AP-1. Upon TLR stimulation, THP1-Blue™ cells activate transcription factors and subsequently the secretion of SEAP which is easily detectable when using QUANTI-Blue\u2122a medium that turns purple/blue in the presence of SEAP.
# The cells were stimulated with the controls and compounds of the invention according to manufacturer's instructions. Results: Increased OD at 625 Nm after 48 Hours: The results for the controls (negative=LPS K12CD25 ultrapure, a TLR4 agonist; and PAM3CSK4=positive, a TLR2 agonist) are provided in the table below. The results (expressed as OD of arbitrary units) show the mean values (from duplicate measures) of Optical density read at 625 nm, 48 h after stimulation at 37° C. with the controls (up to 1000 ng/ml): […]
# [2] = tested on: rat mast cells; test: Histamine secretion (compound 48/80-stimulated); type: cell-based; details: Rattus norvegicus, Mast cell, 2 min, compound 48/80 0.1 μg/ml, 37° C., read-out: IC50
# Source text: Using an in vitro rat model of mast cell degranulation (proposed by the CRO CEREP, catalog number 2006: 771-c), we aimed to investigate whether the synthetic molecules OM-174-DP (compound 1b) OM-174-MP-PD (19), OM-174-MP-EP (33), OM-174-MP-CM (35c) and OM-174-MP-PR (17) would inhibit histamine secretion by compound 48/80-stimulated mastocytes. The protocol used is briefly summarized below:
# The results are expressed as a percent of control specific activity ((measured specific activity/control specific activity)×100) obtained in the presence of the test compounds. The IC50 values (concentration causing a half-maximal inhibition of control specific activity) were determined by non-linear regression analysis of the inhibition curves generated with mean replicate values using Hill equation curve fitting (Y=D+[(A−D)/(1+(C/C50)nH)], where Y=specific activity, D=minimum specific activity, A=maximum specific activity, C=compound concentration, C50=IC50, and nH=slope factor). This analysis was performed using a software developed at Cerep (Hill software) and validated by comparison with data generated by the commercial software SigmaPlot® 4.0 for Windows® (© 1997 by SPSS Inc.).
# In each experiment, the reference compound was tested concurrently with the test compounds in order to assess the assay suitability. It was tested at several concentrations (for IC50 value determination), and the data were compared with historical values determined at CEREP. The assay was rendered valid if the suitability criteria were met, in accordance with the corresponding Standard Operating Procedure.
# [3] = biological target: T1, TLR2 (Homo sapiens, UniProt O60603); test: HEK-TLR2 IL-8 secretion; type: cell-based; details: for IL-8 secretion, mean: 24 h
# T1 construct: host or cells: HEK293
# T1 sequence (O60603 21-784): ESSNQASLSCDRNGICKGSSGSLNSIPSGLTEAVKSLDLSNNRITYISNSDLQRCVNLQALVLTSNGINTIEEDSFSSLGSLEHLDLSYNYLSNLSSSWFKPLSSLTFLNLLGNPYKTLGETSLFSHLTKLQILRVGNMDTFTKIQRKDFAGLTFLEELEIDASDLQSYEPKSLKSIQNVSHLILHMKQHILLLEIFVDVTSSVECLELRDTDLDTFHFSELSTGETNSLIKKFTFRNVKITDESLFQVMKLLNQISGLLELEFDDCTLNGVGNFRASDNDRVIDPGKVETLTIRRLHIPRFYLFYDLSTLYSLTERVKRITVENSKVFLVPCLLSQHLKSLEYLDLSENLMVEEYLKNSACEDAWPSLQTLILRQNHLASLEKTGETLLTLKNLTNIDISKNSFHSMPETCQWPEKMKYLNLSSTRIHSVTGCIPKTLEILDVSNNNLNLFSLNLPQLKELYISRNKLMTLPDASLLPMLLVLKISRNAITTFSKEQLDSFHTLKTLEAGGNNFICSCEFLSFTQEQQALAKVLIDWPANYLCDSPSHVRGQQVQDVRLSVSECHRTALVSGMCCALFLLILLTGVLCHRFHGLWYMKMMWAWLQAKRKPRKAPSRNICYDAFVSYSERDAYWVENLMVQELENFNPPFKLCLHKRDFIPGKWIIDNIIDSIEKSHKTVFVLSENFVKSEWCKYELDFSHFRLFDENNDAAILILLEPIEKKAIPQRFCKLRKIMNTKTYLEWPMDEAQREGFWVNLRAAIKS
# Source text: The HEK293 cell line was chosen for its null or low basal expression of the TLR genes. These cells enable efficient monitoring of TLR activity using ELISA analysis such as IL-8 titration or reporter-based systems that monitor TLR-induced NF-κB activation. HEK-TLR2 cells (Invivogen, Toulouse, France) are engineered HEK293 cells stably transfected with multiple genes from the TLR2 pathway that include TLR2 and genes participating in the recognition or involved in the signaling cascade. These cells secrete IL-8 after TLR2 stimulation. The experiments were performed according to manufacturers' instructions. Briefly, 2×10^4 cells/well (200 ul RPMI) are incubated at 37° C. during 3 days (5% CO2). The medium is removed, and 90 ul RPMi+5% FCS is added to the wells Then the agonists and controls are added (10 ul/well). The cells return to the incubator for 24 hours. The supernatants are collected and the IL-8 ELISA is performed according to manufacturer's instructions
SMILES,activation of THP-1 cells (in words) [1],"Optical density read at 625 nm, mean of duplicates ([1]; 14 ng/ml) [OD]","Optical density read at 625 nm, mean of duplicates ([1]; 41 ng/ml) [OD]","Optical density read at 625 nm, mean of duplicates ([1]; 124 ng/ml) [OD]","Optical density read at 625 nm, mean of duplicates ([1]; 370 ng/ml) [OD]","Optical density read at 625 nm, mean of duplicates ([1]; 1111 ng/ml) [OD]","Optical density read at 625 nm, mean of duplicates ([1]; 3333 ng/ml) [OD]","Optical density read at 625 nm, mean of duplicates ([1]; 10000 ng/ml) [OD]",IC50 [2] [nM],"IL-8 secretion, mean ([3]; 14 ng/ml) [pg/mL]","IL-8 secretion, mean ([3]; 41 ng/ml) [pg/mL]","IL-8 secretion, mean ([3]; 124 ng/ml) [pg/mL]","IL-8 secretion, mean ([3]; 370 ng/ml) [pg/mL]","IL-8 secretion, mean ([3]; 1111 ng/ml) [pg/mL]","IL-8 secretion, mean ([3]; 3333 ng/ml) [pg/mL]","IL-8 secretion, mean ([3]; 10000 ng/ml) [pg/mL]",activation of IL-8 secretion via TLR2 (in words) ([3]; HEK-TLR2)
"CCCCCCCCCCCC(=O)O[C@H](CCCCCCCCCCC)CC(=O)N[C@H]1[C@H](OC[C@H]2O[C@H](OCCOP(=O)(O)O)[C@H](NC(=O)C[C@H](O)CCCCCCCCCCC)[C@@H](O)[C@@H]2O)O[C@H](CO)[C@@H](OP(=O)(O)O)[C@@H]1O [compound 33, 2-(Phosphonooxy)ethyl-2-Deoxy-6-O-[2-deoxy-4-O-(dihydroxyphosphoryl)-2-[(R)-3-dodecanoyloxytetradecanoylamino]-β-D-glucopyranosyl]-2-[(R)-3-hydroxytetradecanoylamino]-α-D-glucopyranoside]",weaker,0.13,0.12,0.13,0.16,0.19,0.25,0.35,210,0.12,0.18,0.23,0.31,0.68,1.66,3.64,able to activate IL-8 secretion via TLR2
"CCCCCCCCCCCC(=O)O[C@H](CCCCCCCCCCC)CC(=O)NC1C(OCC2OC(OP(=O)(O)O)C(NC(=O)C[C@H](O)CCCCCCCCCCC)C(O)C2O)OC(CO)C(OP(=O)(O)O)C1O (stereo partly drawn) [compound 1b, 2-Deoxy-6-O-[2-deoxy-4-O-(dihydroxyphosphoryl)-2-[(R)-3-dodecanoyloxytetradecanoylamino]-β-D-glucopyranosyl]-2-[(R)-3-hydroxytetradecanoylamino]-α-D-glucopyranosyl dihydrogenophosphate]",,,,,,,,,86,,,,,,,,
